PubChem BioAssay AID248 (DTP/NCI, 2004)
Values joined by “and” are separate entries in the source; they are usually repeats but may differ in a detail not shown here. Equal values may be shown once. Inconclusive results and toxic doses are left out. Peptide text beside a SMILES is read from it. * marks the point of attachment. Cbz = O=C(OCc1ccccc1)*; CH2Cl = ClC*

Test system: L1210 leukemia ip in BDF1 mice, survival T/C
Test: NCI In Vivo Anticancer Drug Screen. Data for tumor model L1210 Leukemia (intraperitoneal) in B6D2F1 (BDF1) mice
Settings: higher = longer survival
Outline: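 Tumor cells were implanted, animals were treated, and survival was followed. The result divides the treated measurement by the vehicle-control measurement.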

[1] = endpoint: mean survival time, dose: 100.0 mg/kg/injection, schedule: Q04DX002 (ip), vehicle: Klucel (hydroxypropylcellulose) (HPC)
[2] = endpoint: mean survival time, dose: 200.0 mg/kg/injection, schedule: Q04DX002 (ip), vehicle: Klucel (hydroxypropylcellulose) (HPC)
[3] = endpoint: mean survival time, dose: 400.0 mg/kg/injection, schedule: Q04DX002 (ip), vehicle: Klucel (hydroxypropylcellulose) (HPC)
[4] = endpoint: mean survival time, dose: 100.0 mg/kg/injection, schedule: Q04DX003 (ip), vehicle: Klucel (hydroxypropylcellulose) (HPC)
[5] = endpoint: mean survival time, dose: 25.0 mg/kg/injection, schedule: Q04DX003 (ip), vehicle: Klucel (hydroxypropylcellulose) (HPC)
[6] = endpoint: mean survival time, dose: 50.0 mg/kg/injection, schedule: Q04DX003 (ip), vehicle: Klucel (hydroxypropylcellulose) (HPC)
[7] = endpoint: mean survival time, dose: 25.0 mg/kg/injection, schedule: Q01DX001 (ip), vehicle: saline
[8] = endpoint: mean survival time, dose: 50.0 mg/kg/injection, schedule: Q01DX001 (ip), vehicle: saline

CN(C)N=Nc1cn(C2CC(O)C(CO)O2)c(=O)[nH]c1=O (configuration not stated)
T/C (endpoint: mean survival time, dose: 100.0 mg/kg/injection, schedule: Q01DX005 (ip), vehicle: saline): 95 % of control | T/C (endpoint: mean survival time, dose: 200.0 mg/kg/injection, schedule: Q01DX005 (ip), vehicle: saline): 101 % of control

CCOC(=O)NC(=O)n1ncnc1N
T/C (endpoint: mean survival time, dose: 100.0 mg/kg/injection, schedule: Q04DX003 (ip), vehicle: saline): 108 % of control | T/C (endpoint: mean survival time, dose: 200.0 mg/kg/injection, schedule: Q04DX003 (ip), vehicle: saline): 103 % of control | T/C (endpoint: mean survival time, dose: 400.0 mg/kg/injection, schedule: Q04DX003 (ip), vehicle: saline): 94 % of control

COC(=O)C#CC(c1ccccc1)(c1ccccc1)c1ccccc1
T/C (endpoint: mean survival time, dose: 100.0 mg/kg/injection, schedule: Q04DX003 (ip), vehicle: saline with Tween-80): 90 % of control | T/C (endpoint: mean survival time, dose: 200.0 mg/kg/injection, schedule: Q04DX003 (ip), vehicle: saline with Tween-80): 87 % of control | T/C (endpoint: mean survival time, dose: 400.0 mg/kg/injection, schedule: Q04DX003 (ip), vehicle: saline with Tween-80): 90 % of control

O=C(OCC1OCOC(COC(=O)c2ccccc2)C1O)c1ccccc1 (configuration not stated)
T/C (endpoint: mean survival time, dose: 50.0 mg/kg/injection, schedule: Q04DX002 (ip), vehicle: saline with Tween-80): 118 % of control | T/C (endpoint: mean survival time, dose: 100.0 mg/kg/injection, schedule: Q04DX002 (ip), vehicle: saline with Tween-80): 112 % of control | T/C (endpoint: mean survival time, dose: 200.0 mg/kg/injection, schedule: Q04DX002 (ip), vehicle: saline with Tween-80): 102 % of control

OC1C2CCN(CC2)C1C(c1ccccc1)c1ccc(F)cc1 (configuration not stated)
T/C [1]: 91 % of control | T/C [2]: 87 % of control

CCC(=O)NC1=C(N2CC2)C(=O)C(NC(=O)CC)=C(N2CC2)C1=O
T/C (endpoint: mean survival time, dose: 0.31 mg/kg/injection, schedule: Q01DX009 (ip), vehicle: Klucel (hydroxypropylcellulose) (HPC)): 121 % of control | T/C (endpoint: mean survival time, dose: 1.25 mg/kg/injection, schedule: Q01DX001 (ip), vehicle: saline with Tween-80): 115 % of control | T/C (endpoint: mean survival time, dose: 1.25 mg/kg/injection, schedule: Q01DX001 (ip), vehicle: saline): 108 % of control | T/C (endpoint: mean survival time, dose: 1.25 mg/kg/injection, schedule: Q01DX009 (ip), vehicle: Klucel (hydroxypropylcellulose) (HPC)): 162 % of control | T/C (endpoint: mean survival time, dose: 2.5 mg/kg/injection, schedule: Q01DX001 (ip), vehicle: saline): 119 % of control | T/C (endpoint: mean survival time, dose: 2.5 mg/kg/injection, schedule: Q04DX003 (ip), vehicle: Klucel (hydroxypropylcellulose) (HPC)): 175 % of control | T/C (endpoint: mean survival time, dose: 5.0 mg/kg/injection, schedule: Q01DX001 (ip), vehicle: saline with Tween-80): 167 % of control | T/C (endpoint: mean survival time, dose: 5.0 mg/kg/injection, schedule: Q01DX009 (ip), vehicle: Klucel (hydroxypropylcellulose) (HPC)): 104 % of control | T/C (endpoint: mean survival time, dose: 5.0 mg/kg/injection, schedule: Q01DX009 (ip), vehicle: saline): 100 % of control | T/C (endpoint: mean survival time, dose: 5.0 mg/kg/injection, schedule: Q04DX003 (ip), vehicle: Klucel (hydroxypropylcellulose) (HPC)): 102 % of control | T/C (endpoint: mean survival time, dose: 10.0 mg/kg/injection, schedule: Q01DX001 (ip), vehicle: saline with Tween-80): 169 % of control | T/C (endpoint: mean survival time, dose: 10.0 mg/kg/injection, schedule: Q01DX009 (ip), vehicle: saline): 93 % of control | T/C (endpoint: mean survival time, dose: 10.0 mg/kg/injection, schedule: Q04DX003 (ip), vehicle: Klucel (hydroxypropylcellulose) (HPC)): 90 % of control

CCCCCCCCNP(=S)(NCCCCCCCC)NCCCCCCCC
T/C (endpoint: mean survival time, dose: 50.0 mg/kg/injection, schedule: Q01DX001 (ip), vehicle: other): 105 % of control | T/C (endpoint: mean survival time, dose: 100.0 mg/kg/injection, schedule: Q01DX001 (ip), vehicle: other): 96 % of control | T/C (endpoint: mean survival time, dose: 200.0 mg/kg/injection, schedule: Q01DX001 (ip), vehicle: other): 96 % of control | T/C (endpoint: mean survival time, dose: 400.0 mg/kg/injection, schedule: Q01DX001 (ip), vehicle: other): 94 % of control

O=C(Nc1cc(C(F)(F)F)ccc1Cl)OCC(F)(F)F
T/C (endpoint: mean survival time, dose: 100.0 mg/kg/injection, schedule: Q01DX009 (ip), vehicle: Klucel (hydroxypropylcellulose) (HPC)): 97 % of control and 104 % of control | T/C [1]: 108 % of control and 91 % of control | T/C (endpoint: mean survival time, dose: 200.0 mg/kg/injection, schedule: Q01DX009 (ip), vehicle: Klucel (hydroxypropylcellulose) (HPC)): 105 % of control and 112 % of control | T/C [2]: 103 % of control and 104 % of control | T/C (endpoint: mean survival time, dose: 400.0 mg/kg/injection, schedule: Q01DX009 (ip), vehicle: Klucel (hydroxypropylcellulose) (HPC)): 94 % of control and 108 % of control | T/C [3]: 103 % of control and 107 % of control

Cc1cccc(-c2nc3cc(Cl)ccc3c(=O)o2)c1
T/C [4]: 97 % of control | T/C (endpoint: mean survival time, dose: 200.0 mg/kg/injection, schedule: Q04DX003 (ip), vehicle: Klucel (hydroxypropylcellulose) (HPC)): 90 % of control

CC1(C)C2CCC1(CS(=O)(=O)O)C(=O)C2Br.[Ag] (configuration not stated)
T/C (endpoint: mean survival time, dose: 1.56 mg/kg/injection, schedule: Q01DX009 (ip), vehicle: saline): 101 % of control | T/C (endpoint: mean survival time, dose: 3.12 mg/kg/injection, schedule: Q01DX009 (ip), vehicle: saline): 108 % of control | T/C (endpoint: mean survival time, dose: 6.25 mg/kg/injection, schedule: Q01DX009 (ip), vehicle: saline): 90 % of control | T/C (endpoint: mean survival time, dose: 12.5 mg/kg/injection, schedule: Q01DX009 (ip), vehicle: saline with Tween-80): 93 % of control

CC(=O)OC1CC(OC2C(O)CC(OC3C(O)CC(OC4CCC5(C)C(CCC6C5CCC5(C)C(C7=CC(=O)OC7)C(O)CC65O)C4)OC3C)OC2C)OC(C)C1OC1OC(CO)C(O)C(O)C1O (configuration not stated)
T/C (endpoint: mean survival time, dose: 12.5 mg/kg/injection, schedule: Q04DX003 (ip), vehicle: Klucel (hydroxypropylcellulose) (HPC)): 97 % of control | T/C (endpoint: mean survival time, dose: 25.0 mg/kg/injection, schedule: Q01DX001 (ip), vehicle: carboxymethylcellulose (CMC)): 111 % of control | T/C [5]: 103 % of control | T/C (endpoint: mean survival time, dose: 50.0 mg/kg/injection, schedule: Q01DX001 (ip), vehicle: carboxymethylcellulose (CMC)): 105 % of control | T/C [6]: 112 % of control | T/C [4]: 97 % of control

Cc1ccccc1NC1=C(Cl)C(=O)c2ccccc2C1=O
T/C (endpoint: mean survival time, dose: 25.0 mg/kg/injection, schedule: Q04DX003 (ip), vehicle: saline): 93 % of control | T/C (endpoint: mean survival time, dose: 50.0 mg/kg/injection, schedule: Q04DX003 (ip), vehicle: saline): 93 % of control | T/C (endpoint: mean survival time, dose: 100.0 mg/kg/injection, schedule: Q01DX001 (ip), vehicle: saline): 93 % of control

Cn1cnccc1=S
T/C [7]: 96 % of control | T/C [8]: 108 % of control

CC[N+](CC)(CC)CCNC(c1ccccc1)C(Cl)(Cl)Cl (configuration not stated)
T/C (endpoint: mean survival time, dose: 12.5 mg/kg/injection, schedule: Q01DX001 (ip), vehicle: saline): 97 % of control | T/C [7]: 87 % of control | T/C [8]: 95 % of control

c1ccc([Si](c2ccccc2)(c2ccccc2)c2ccc(-c3ccc([Si](c4ccccc4)(c4ccccc4)c4ccccc4)cc3)cc2)cc1
T/C (endpoint: mean survival time, dose: 200.0 mg/kg/injection, schedule: Q01DX001 (ip), vehicle: saline with Tween-80): 90 % of control | T/C (endpoint: mean survival time, dose: 400.0 mg/kg/injection, schedule: Q01DX001 (ip), vehicle: saline with Tween-80): 88 % of control

O=C(O)/C(I)=C(\I)C(=O)O
T/C (endpoint: mean survival time, dose: 100.0 mg/kg/injection, schedule: Q04DX002 (ip), vehicle: saline): 106 % of control | T/C (endpoint: mean survival time, dose: 200.0 mg/kg/injection, schedule: Q04DX002 (ip), vehicle: saline): 117 % of control

C/C(=N\N=C(N)N)c1ccccc1
T/C (endpoint: mean survival time, dose: 15.0 mg/kg/injection, schedule: Q01DX Z (oral), vehicle: carboxymethylcellulose (CMC)): 102 % of control | T/C (endpoint: mean survival time, dose: 30.0 mg/kg/injection, schedule: Q01DX Z (oral), vehicle: carboxymethylcellulose (CMC)): 97 % of control

CCOC(=O)c1[nH]c(-c2ccccc2)nc1/N=N/N(C)C
T/C (endpoint: median survival time, dose: 25.0 mg/kg/injection, schedule: Q01DX009 (ip), vehicle: Klucel (hydroxypropylcellulose) (HPC)): 122 % of control | T/C (endpoint: median survival time, dose: 200.0 mg/kg/injection, schedule: Q01DX009 (ip), vehicle: Klucel (hydroxypropylcellulose) (HPC)): 111 % of control

CC(C)CC(NC(=O)CNC(=O)OCc1ccccc1)C(=O)NC(Cc1ccccc1)C(=O)CCl (stereo not drawn) (Cbz-Gly-Leu-Phe-CH2Cl; configuration not given here)
T/C [5]: 102 % of control | T/C [6]: 106 % of control | T/C (endpoint: mean survival time, dose: 75.0 mg/kg/injection, schedule: Q04DX003 (ip), vehicle: Klucel (hydroxypropylcellulose) (HPC)): 94 % of control and 90 % of control | T/C (endpoint: mean survival time, dose: 100.0 mg/kg/injection, schedule: Q01DX001 (ip), vehicle: Klucel (hydroxypropylcellulose) (HPC)): 92 % of control | T/C (endpoint: mean survival time, dose: 200.0 mg/kg/injection, schedule: Q01DX001 (ip), vehicle: Klucel (hydroxypropylcellulose) (HPC)): 92 % of control

CC(=O)OCC1OC(N2C(=O)/C(=C(/C)c3ccco3)SC2=S)C(OC(C)=O)C(OC(C)=O)C1OC(C)=O (configuration not stated)
T/C (endpoint: mean survival time, dose: 25.0 mg/kg/injection, schedule: Q01DX005 (ip), vehicle: other): 103 % of control | T/C (endpoint: mean survival time, dose: 50.0 mg/kg/injection, schedule: Q01DX005 (ip), vehicle: other): 98 % of control | T/C (endpoint: mean survival time, dose: 100.0 mg/kg/injection, schedule: Q01DX005 (ip), vehicle: other): 98 % of control | T/C (endpoint: mean survival time, dose: 200.0 mg/kg/injection, schedule: Q01DX005 (ip), vehicle: other): 98 % of control | T/C (endpoint: mean survival time, dose: 400.0 mg/kg/injection, schedule: Q01DX005 (ip), vehicle: other): 101 % of control

Cc1ccc(Cl)cc1NC(=O)CCc1ccccc1
T/C [1]: 91 % of control | T/C [2]: 94 % of control | T/C [3]: 91 % of control
